Results: patent publication US20030215462A1, “Use of UGT inhibitors to increase bioavailability” (priority 2001, published 2003)

Tests used:
[1] = system: UGT enzymes of pooled human jejunum microsomes; test: Inhibition of estradiol (E2) glucuronidation in pooled human jejunum microsomes; format: biochemical; conditions: jejunum HJ61, E2 50 μM
From the text: (§1) Compounds were eluted using a binary solvent gradient system where solvent A was dilute phosphoric acid (pH 3) and solvent B was 80:20 acetonitrile-methanol. […] Detection was at 280 nm.

[2] = system: UGT enzymes of human liver microsomes; test: Inhibition of estradiol (E2) glucuronidation in human liver microsomes; format: biochemical; conditions: E2 50 μM
From the text: as §1

[3] = system: T1, UGT enzymes of human liver microsomes; test: as above; format: biochemical; conditions: liver 032101, E2 50 μM
T1 construct: residual metabolism (% of control), E2-3-β-D-glucuronide; other: liver 032101; residual metabolism (% of control), E2-3-β-D-glucuronide
From the text: as §1

[4] = system: T2, UGT enzymes of human liver microsomes; test: as above; format: biochemical; conditions: liver 032101, E2 50 μM
T2 construct: residual metabolism (% of control), E2-17-β-D-glucuronide; other: liver 032101; residual metabolism (% of control), E2-17-β-D-glucuronide
From the text: as §1

UGT1A9 = molecular target: T3, UGT1A9 (Homo sapiens, UniProt O60656); test: Inhibition of raloxifene glucuronidation by recombinant UGT1A9 Supersomes; conditions: for activity at 15 min, 10 µM / activity at 15 min, 25 µM / activity at 15 min, 50 µM: human, Supersomes with recombinant human UGT1A9, pH 7.5, probe raloxifene 50 μM; for Inhibition of raloxifene glucuronidation, UGT1A9, second line per inhibitor (G2): second line (G2, metabolite not given), raloxifene 50 μM, 250 μg/ml Supersomes, 1 mM UDPGA, 15 min
T3 sequence (O60656 26-530): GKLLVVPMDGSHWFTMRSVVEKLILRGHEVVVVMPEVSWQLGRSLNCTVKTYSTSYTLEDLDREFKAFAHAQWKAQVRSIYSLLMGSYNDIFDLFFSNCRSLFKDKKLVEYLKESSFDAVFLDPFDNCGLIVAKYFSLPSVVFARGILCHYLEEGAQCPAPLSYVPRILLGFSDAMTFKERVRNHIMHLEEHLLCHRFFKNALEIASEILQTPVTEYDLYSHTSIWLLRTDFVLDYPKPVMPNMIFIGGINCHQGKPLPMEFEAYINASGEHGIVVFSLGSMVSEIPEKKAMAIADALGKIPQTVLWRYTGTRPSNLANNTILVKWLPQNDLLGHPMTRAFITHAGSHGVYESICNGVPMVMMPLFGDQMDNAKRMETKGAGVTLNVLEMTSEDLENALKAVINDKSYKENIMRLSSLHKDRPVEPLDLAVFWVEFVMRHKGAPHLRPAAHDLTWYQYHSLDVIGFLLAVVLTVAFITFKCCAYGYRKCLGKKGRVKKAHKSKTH

UGT1A3 = molecular target: T4, UGT1A3 (Homo sapiens, UniProt P35503); test: Inhibition of raloxifene glucuronidation by recombinant UGT1A3 Supersomes; conditions: for activity at 15 min, 10 µM / activity at 15 min, 25 µM / activity at 15 min, 50 µM: human; for activity at 15 min, 10 µM: inhibitor 10 μM; for activity at 15 min, 25 µM: inhibitor 25 μM; for activity at 15 min, 50 µM: inhibitor 50 μM
T4 sequence (P35503 29-534): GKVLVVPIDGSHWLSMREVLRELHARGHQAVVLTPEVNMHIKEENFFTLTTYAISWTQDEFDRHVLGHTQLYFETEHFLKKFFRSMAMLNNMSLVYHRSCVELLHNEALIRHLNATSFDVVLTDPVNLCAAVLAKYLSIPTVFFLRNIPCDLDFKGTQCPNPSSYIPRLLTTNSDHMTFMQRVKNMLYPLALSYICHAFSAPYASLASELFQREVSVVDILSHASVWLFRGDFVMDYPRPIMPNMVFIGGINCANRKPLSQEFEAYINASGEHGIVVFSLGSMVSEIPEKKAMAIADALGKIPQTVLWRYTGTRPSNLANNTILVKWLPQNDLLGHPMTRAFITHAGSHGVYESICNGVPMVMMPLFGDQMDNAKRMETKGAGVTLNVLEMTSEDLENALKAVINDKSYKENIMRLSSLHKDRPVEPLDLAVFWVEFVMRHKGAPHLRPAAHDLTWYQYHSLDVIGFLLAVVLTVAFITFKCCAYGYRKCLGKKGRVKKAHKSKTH
Method: Compounds were eluted using a binary solvent gradient system. Solvent A was water brought to pH 8 with NH4OH. Solvent B was methanol. Solvent flow rate was 1 ml/min and the column temperature was maintained at 50° C. Detection was at 280 nm. […] The system was then returned to the initial conditions and equilibrated for 3 min.

[5] = Supersomes with recombinant human UGT1A3, pH 7.5, probe raloxifene 50 μM, formation of glucuronide G1, % of control metabolism, raloxifene G1, UGT1A3
[6] = Supersomes with recombinant human UGT1A3, pH 7.5, probe raloxifene 50 μM, formation of glucuronide G2, % of control metabolism, raloxifene G2, UGT1A3
[7] = recombinant UGT1A3 Supersomes, pH 7.5, probe raloxifene 50 μM (formation of glucuronide G1), Inhibition of raloxifene glucuronidation, G1, UGT1A3, G1, raloxifene 50 μM, 250 μg/ml Supersomes, 1 mM UDPGA, 15 min
[8] = recombinant UGT1A3 Supersomes, pH 7.5, probe raloxifene 50 μM (formation of glucuronide G2), Inhibition of raloxifene glucuronidation, G2, UGT1A3, G2, raloxifene 50 μM, 250 μg/ml Supersomes, 1 mM UDPGA, 15 min

Q: Which “residual metabolism (% of control), E2-17-β-D-glucuronide” value ([1]; inhibitor 25 μM) does the source give for `O=c1c(O)c(-c2ccc(O)c(O)c2)oc2cc(O)cc(O)c12` [Quercetin] here?
A: The value was 72 (3) %.

Q: And the “residual metabolism (% of control), E2-3-β-D-glucuronide” value ([1]; inhibitor 50 μM)?
A: The value was 29 (2) %.

Q: And the “residual metabolism (% of control), E2-17-β-D-glucuronide” value ([1]; inhibitor 50 μM)?
A: The value was 56 (2) %.

Q: And the “residual metabolism (% of control), E2-3-β-D-glucuronide” value ([1]; inhibitor 100 μM)?
A: The value was 12 (1) %.

Q: And the “residual metabolism (% of control), E2-17-β-D-glucuronide” value ([1]; inhibitor 100 μM)?
A: The value was 42 (7) %.

Q: And the “residual metabolism (% of control), E2-3-β-D-glucuronide” value ([2]; liver 032101, inhibitor 25 μM)?
A: The value was 58 (1) %.

Q: What about the “residual metabolism (% of control), E2-17-β-D-glucuronide” value ([2]; liver 032101, inhibitor 25 μM) of the same compound?
A: Its value is 94 (3) %.

Q: What about the “residual metabolism (% of control), E2-3-β-D-glucuronide” value ([2]; liver 062101, inhibitor 25 μM) of the same compound?
A: Its value is 56 (3) %.

Q: What about the “residual metabolism (% of control), E2-17-β-D-glucuronide” value ([2]; liver 062101, inhibitor 25 μM) of the same compound?
A: Its value is 83 (1) %.

Q: What about the “residual metabolism (% of control), E2-3-β-D-glucuronide” value ([2]; liver 062101, inhibitor 50 μM) of the same compound?
A: The value was 30 (1) %.

Q: What about the “residual metabolism (% of control), E2-17-β-D-glucuronide” value ([2]; liver 062101, inhibitor 50 μM) of the same compound?
A: Its value is 69 (1) %.

Q: And the “residual metabolism (% of control), E2-3-β-D-glucuronide” value ([2]; liver 062101, inhibitor 100 μM)?
A: The value was 19 (1) %.

Q: What about the “residual metabolism (% of control), E2-17-β-D-glucuronide” value ([2]; liver 062101, inhibitor 100 μM) of the same compound?
A: Its value is 57 (2) %.

Q: And the “residual metabolism (% of control), E2-3-β-D-glucuronide” value ([3]; inhibitor 50 μM)?
A: Its value is 29 (1) %.

Q: What about the “residual metabolism (% of control), E2-3-β-D-glucuronide” value ([3]; inhibitor 100 μM) of the same compound?
A: The value was 10 (1) %.

Q: And the “residual metabolism (% of control), E2-17-β-D-glucuronide” value ([4]; inhibitor 50 μM)?
A: Its value is 72 (6) %.

Q: And the “residual metabolism (% of control), E2-17-β-D-glucuronide” value ([4]; inhibitor 100 μM)?
A: The value was 50 (3) %.

Q: And the “inhibition of raloxifene glucuronidation, in words” value (UGT1A9; UGT1A9)?
A: The value was “good inhibitor”.

Q: What about the activity at 15 min, 10 µM (UGT1A9; formation of glucuronide G1, % of control metabolism, raloxifene G1, UGT1A9, inhibitor 10 μM) of the same compound?
A: Its activity at 15 min, 10 µM is 59%.

Q: And the activity at 15 min, 25 µM (UGT1A9; formation of glucuronide G1, % of control metabolism, raloxifene G1, UGT1A9, inhibitor 25 μM)?
A: Its activity at 15 min, 25 µM is 45%.

Q: And the activity at 15 min, 50 µM (UGT1A9; formation of glucuronide G1, % of control metabolism, raloxifene G1, UGT1A9, inhibitor 50 μM)?
A: Its activity at 15 min, 50 µM is 26%.

Q: And the activity at 15 min, 10 µM (UGT1A9; formation of glucuronide G2, % of control metabolism, raloxifene G2, UGT1A9, inhibitor 10 μM)?
A: Its activity at 15 min, 10 µM is 56%.

Q: What about the activity at 15 min, 25 µM (UGT1A9; formation of glucuronide G2, % of control metabolism, raloxifene G2, UGT1A9, inhibitor 25 μM) of the same compound?
A: The activity at 15 min, 25 µM was 39%.

Q: What about the activity at 15 min, 50 µM (UGT1A9; formation of glucuronide G2, % of control metabolism, raloxifene G2, UGT1A9, inhibitor 50 μM) of the same compound?
A: Its activity at 15 min, 50 µM is 24%.

Q: And the “Inhibition of raloxifene glucuronidation, UGT1A9, second line per inhibitor (G2)” value (“Inhibition … per inhibitor (G2)” below) (UGT1A9; inhibitor 5 μM)?
A: Its value is 85 (5).

Q: And the “Inhibition … per inhibitor (G2)” value (UGT1A9; inhibitor 10 μM)?
A: The value was 56 (3).

Q: And the “Inhibition … per inhibitor (G2)” value (UGT1A9; inhibitor 25 μM)?
A: Its value is 39 (2).

Q: And the “Inhibition … per inhibitor (G2)” value (UGT1A9; inhibitor 50 μM)?
A: Its value is 24 (2).

Q: What about the “inhibition of raloxifene glucuronidation, in words” value (UGT1A3; UGT1A3) of the same compound?
A: The value was “good inhibitor”.

Q: And the activity at 15 min, 10 µM (UGT1A3; [5])?
A: The activity at 15 min, 10 µM was 81%.

Q: What about the activity at 15 min, 25 µM (UGT1A3; [5]) of the same compound?
A: The activity at 15 min, 25 µM was 53%.

Q: What about the activity at 15 min, 50 µM (UGT1A3; [5]) of the same compound?
A: The activity at 15 min, 50 µM was 28%.

Q: And the activity at 15 min, 10 µM (UGT1A3; [6])?
A: Its activity at 15 min, 10 µM is 56%.

Q: And the activity at 15 min, 25 µM (UGT1A3; [6])?
A: Its activity at 15 min, 25 µM is 49%.

Q: And the activity at 15 min, 50 µM (UGT1A3; [6])?
A: Its activity at 15 min, 50 µM is 25%.

Q: And the activity at 15 min, 10 µM (UGT1A3; [7])?
A: The activity at 15 min, 10 µM was 72%.

Q: And the activity at 15 min, 25 µM (UGT1A3; [7])?
A: Its activity at 15 min, 25 µM is 52%.

Q: What about the activity at 15 min, 50 µM (UGT1A3; [7]) of the same compound?
A: Its activity at 15 min, 50 µM is 28%.

Q: What about the activity at 15 min, 10 µM (UGT1A3; [8]) of the same compound?
A: Its activity at 15 min, 10 µM is 73%.

Q: What about the activity at 15 min, 25 µM (UGT1A3; [8]) of the same compound?
A: Its activity at 15 min, 25 µM is 49%.

Q: And the activity at 15 min, 50 µM (UGT1A3; [8])?
A: The activity at 15 min, 50 µM was 25%.
